Data published in patent publication US20210275511A1, “METHYLPHENIDATE COMPOSITIONS FOR TREATMENT OF ATTENTION DEFICIT HYPERACTIVITY DISORDER” (Ironshore Pharmaceuticals & Development, Inc., priority 2019, published 2021).

Tested on: SKAMP scores in children aged 6-12 with attention deficit hyperactivity disorder (ADHD)
Assay: Population PK/PD model of SKAMP scores (Study HLD200-107, laboratory classroom)
Format: in vivo, human
Conditions: FIG. 37
From the text: PD data. The clinical data used in this analysis were the SKAMP scores collected in a Phase 3 (HLD200-107 study), multicenter, open-label treatment-optimized, double-blind, randomized, placebo-controlled, forced-withdrawal, parallel group study to evaluate the safety and efficacy of evening dosed HLD200, a novel delayed and extended release formulation (DELEXIS) of methylphenidate hydrochloride, in children aged 6-12 with attention deficit hyperactivity disorder (ADHD) in a laboratory classroom setting.
PK/PD model development. In this study, no MPH samples were collected. Therefore the individual exposure, used in the PK/PD analysis were estimated based on the outcomes of population PK model and on the individual demographic (weight and gender) covariate values.
The model included a parametric description of the trajectories of SKAMP scores for placebo and HLD200 treatments. […]
Examples 10 to 15 relate to PK/PD analysis results. […] In the first step, the individual MPH concentrations were derived using the population PK model previously developed jointly with the individual demographic data and the individual HLD200 dosing history, then the placebo data were modelled, and finally the SKAMP scores were analyzed by fixing the placebo and the PK exposure values previously estimated. […]

COC(=O)C(c1ccccc1)C1CCCCN1 (stereo not shown) [MPH, methylphenidate]
Drug concentration required to induce a change from placebo of ~40%: ~15 ng/mL
